Earlier results, collected in US20020171063A1, “Reduced toxicity ethylene glycol-based antifreeze/heat transfer fluid concentrates and antifreeze/heat transfer fluids” (priority 2001, published 2002).

System: laboratory rats

O.O.O.O.O=B[O-].[Na+] [metaborate]
acute oral toxicity (LD50): 1,700 mg/kg

CC(O)CO (centres unmarked) [PG, 1,2-propanediol]
acute oral toxicity (LD50): 20,000 mg/kg
